Laboratory results reported in ChEMBL document CHEMBL3745657, “Core chemotype diversification in the HIV-1 entry inhibitor class using field-based bioisosteric replacement” (Bioorg Med Chem Lett, 2016).

Assays:
Format in all cases: functional, organism-based
[1] = test system: Human immunodeficiency virus 1; experiment: Antiviral activity against recombinant HIV-1 NL4-3 expressing HIV-1 JR-CSF envelope infected in U87.CD4.CCR5 cells assessed as inhibition of Env mediated cell entry by HIV-1 single round infection assay; conditions: Human immunodeficiency virus 1, NL4-3, U87/CD4/CCR5
[2] = test system: Human immunodeficiency virus 1; experiment: Antiviral activity against recombinant HIV-1 NL4-3 expressing HIV-1 B41 envelope infected in U87.CD4.CCR5 cells assessed as inhibition of Env mediated cell entry by HIV-1 single round infection assay; conditions: Human immunodeficiency virus 1, NL4-3, U87/CD4/CCR5
[3] = test system: Human immunodeficiency virus 1; experiment: Antiviral activity against recombinant HIV-1 NL4-3 expressing HIV-1 HxBc2 envelope infected in U87.CD4.CXCR4 cells by HIV-1 single round infection assay; conditions: Human immunodeficiency virus 1, NL4-3, U87.CD4.CXCR4
[4] = test system: Human immunodeficiency virus 1; experiment: Antiviral activity against recombinant HIV-1 NL4-3 expressing AMLV envelope infected in U87.CD4.CCR5 cells assessed as inhibition of Env mediated cell entry by HIV-1 single round infection assay

| SMILES | IC50 ([1]; read-out: IC50) [µM] | IC50 ([1]; read-out: pIC50 (converted)) [µM] | IC50 [2] [µM] | IC50 [3] [µM] | IC50 [4] |
| --- | --- | --- | --- | --- | --- |
| COc1cnc(Cl)c2[nH]cc(C(=O)C(=O)N3CC4CN(C(=O)c5ccccc5)CC4C3)c12 (centres undefined) | 100 | – | – | – | – |
| COc1cnc(-n2cnc(C)n2)c2[nH]cc(C(=O)C(=O)N3CCC4(CCN(C(=O)c5ccccc5)CC4)C3)c12 | 13 | 12.9 | 3.9 | 36 | Not Active |
| COc1cnc(-n2cnc(C)n2)c2[nH]cc(C(=O)C(=O)N3CC4C=NN(c5ccccc5)C4C3)c12 (centres undefined) | 0.008 | – | 0.006 | 0.08 | Not Active |
| COc1cnc(-n2cnc(C)n2)c2[nH]cc(C(=O)C(=O)NC3C4CN(C(=O)c5ccccc5)CC43)c12 (centres undefined) | 0.096 | – | 0.085 | 0.069 | Not Active |
| COc1cnc(-n2cnc(C)n2)c2[nH]cc(C(=O)C(=O)N3CC4CN(C(=O)C5=CCCCC5)CC4C3)c12 (centres undefined) | 0.002 | – | – | – | – |

More lines, now with the values ahead:

| IC50 ([1]; read-out: IC50) [µM] | IC50 ([1]; read-out: pIC50 (converted)) [µM] | IC50 [2] [µM] | IC50 [3] [µM] | IC50 [4] | SMILES |
| --- | --- | --- | --- | --- | --- |
| 0.003 | – | 0.007 | 0.009 | Not Active | COc1cnc(-n2cnc(C)n2)c2[nH]cc(C(=O)C(=O)N3CC(CCC(=O)c4ccccc4)C3)c12 |
| 2.5 | – | 3.8 | 3.8 | Not Active | COc1cnc(-n2cnc(C)n2)c2[nH]cc(C(=O)NCC3CN(C(=O)c4ccccc4)C3)c12 |
| 0.001 | 0.000794 | – | – | – | COc1cnc(-n2cnc(C)n2)c2[nH]cc(C(=O)C(=O)N3CC4CN(C(=O)c5ccccc5)CC4C3)c12 (centres undefined) |
| 0.224 | – | 0.35 | 0.38 | Not Active | COc1cnc(-n2cnc(C)n2)c2[nH]cc(C(=O)C(=O)N3CC=C(CNC(=O)c4ccccc4)CC3)c12 |
